# Measurements: ChEMBL document CHEMBL1201862, “PubChem BioAssay data set” (2004)
#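 48-hour exposure; five concentrations; linearly interpolated endpoints. Abbreviation: GI50, concentration required for 50% inhibition of growth.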 Activity calls are given as the source filed them. No stated cut-off is given here; in the data, active = GI50 up to about 1.1 µM and inactive = higher.
# How the values were obtained:
# Test in all cases: DTP human tumour cell line panel, 48 h
# [1] = test system: UO-31
# [2] = test system: OVCAR-3
# [3] = test system: SNB-19
# [4] = test system: HL-60
# [5] = test system: MOLT-4
# [6] = test system: 786-0
# [7] = test system: UACC-62
# [8] = test system: CCRF-CEM
# [9] = test system: SK-MEL-28
# [10] = test system: SNB-75
# [11] = test system: DLD-1
# [12] = test system: NCI-H23
# [13] = test system: HT-29
# [14] = test system: SF-268
# [15] = test system: SF-295
# [16] = test system: IGROV-1
# [17] = test system: NCI-H522
# [18] = test system: M14
# [19] = test system: SK-OV-3
# [20] = test system: NCI/ADR-RES
Structure (SMILES),GI50 [1],GI50 [2],GI50 [3],GI50 [4],GI50 [5],GI50 [6],GI50 [7],GI50 [8],GI50 [9],GI50 [10],GI50 [11],GI50 [12],GI50 [13],GI50 [14],GI50 [15],GI50 [16],GI50 [17],GI50 [18],GI50 [19],GI50 [20]
CC1(C)C2CCC3(OCCO3)C1C(O)C2 (stereo not given),> 100 µM (inactive),> 100 µM (inactive),> 100 µM (inactive),> 100 µM (inactive),> 100 µM (inactive),> 100 µM (inactive),> 100 µM (inactive),> 100 µM (inactive),> 100 µM (inactive),> 100 µM (inactive),> 100 µM (inactive),> 100 µM (inactive),> 100 µM (inactive),> 100 µM (inactive),> 100 µM (inactive),> 100 µM (inactive),> 100 µM (inactive),> 100 µM (inactive),,
Cn1c2c(c3ccccc31)CCN(CCCCN1CCCCC1)C2=O,> 100 µM (inactive),> 100 µM (inactive),> 100 µM (inactive),> 100 µM (inactive),> 100 µM (inactive),> 100 µM (inactive),28.3 µM (inactive),> 100 µM (inactive),16.8 µM (inactive),,> 100 µM (inactive),> 100 µM (inactive),61 µM (inactive),51.1 µM (inactive),> 100 µM (inactive),> 100 µM (inactive),> 100 µM (inactive),99.1 µM (inactive),> 100 µM (inactive),
O=C1CN(c2ccccc2)C(=O)C1C(=O)Nc1ccc(Cl)c(Cl)c1 (stereo not given),4.12 µM (inactive),3.15 µM (inactive),4.62 µM (inactive),0.667 µM (active),2.33 µM (inactive),,1.73 µM (inactive),1.84 µM (inactive),7.43 µM (inactive),0.973 µM (active),5.08 µM (inactive),7.31 µM (inactive),3.68 µM (inactive),6.32 µM (inactive),3.72 µM (inactive),2.33 µM (inactive),2.05 µM (inactive),1.79 µM (inactive),5.19 µM (inactive),
Cc1cc2c(C(C)C)c(O)c(O)c(/C=N/c3ccccc3)c2c(O)c1-c1c(C)cc2c(C(C)C)c(O)c(O)c(/C=N/c3ccccc3)c2c1O,> 100 µM (inactive),> 100 µM (inactive),> 100 µM (inactive),> 100 µM (inactive),> 100 µM (inactive),,> 100 µM (inactive),> 100 µM (inactive),> 100 µM (inactive),67.8 µM (inactive),> 100 µM (inactive),,> 100 µM (inactive),> 100 µM (inactive),> 100 µM (inactive),> 100 µM (inactive),> 100 µM (inactive),> 100 µM (inactive),> 100 µM (inactive),
CCOC(=O)CC(NC(=O)c1ccc(/N=N/N(C)C)cc1)C(=O)OCC (stereo not given),> 100 µM (inactive),> 100 µM (inactive),> 100 µM (inactive),> 100 µM (inactive),> 100 µM (inactive),> 100 µM (inactive),63.4 µM (inactive),> 100 µM (inactive),> 100 µM (inactive),91.8 µM (inactive),> 100 µM (inactive),> 100 µM (inactive),> 100 µM (inactive),> 100 µM (inactive),> 100 µM (inactive),> 100 µM (inactive),> 100 µM (inactive),> 100 µM (inactive),> 100 µM (inactive),
O=C1NC2(CCCCC2)C2CCCCCC12 (stereo not given),> 100 µM (inactive),> 100 µM (inactive),> 100 µM (inactive),> 100 µM (inactive),> 100 µM (inactive),,> 100 µM (inactive),,> 100 µM (inactive),> 100 µM (inactive),> 100 µM (inactive),> 100 µM (inactive),> 100 µM (inactive),> 100 µM (inactive),> 100 µM (inactive),> 100 µM (inactive),,> 100 µM (inactive),> 100 µM (inactive),
COc1nc(N)nc2nc[nH]c12,239 µM (inactive),497 µM (inactive),> 500 µM (inactive),383 µM (inactive),474 µM (inactive),489 µM (inactive),160 µM (inactive),331 µM (inactive),> 419 µM (inactive),208 µM (inactive),385 µM (inactive),> 500 µM (inactive),495 µM (inactive),435 µM (inactive),> 500 µM (inactive),239 µM (inactive),440 µM (inactive),478 µM (inactive),129 µM (inactive),> 500 µM (inactive)
COc1ccc(N2C(=O)C3C=CC(n4[nH]c(=O)n(Cc5ccccc5)c4=O)CC3C2=O)cc1 (stereo not given),> 100 µM (inactive),> 100 µM (inactive),> 100 µM (inactive),> 100 µM (inactive),> 100 µM (inactive),> 100 µM (inactive),> 100 µM (inactive),> 100 µM (inactive),> 100 µM (inactive),> 100 µM (inactive),> 100 µM (inactive),> 100 µM (inactive),> 100 µM (inactive),> 100 µM (inactive),> 100 µM (inactive),> 100 µM (inactive),> 100 µM (inactive),> 100 µM (inactive),> 100 µM (inactive),
COc1cc2c(cc1OC)C(Cl)C(c1cc(OC)c(OC)c(OC)c1)=C2Cl (stereo not given),11 µM (inactive),17.1 µM (inactive),14.3 µM (inactive),13.6 µM (inactive),7.06 µM (inactive),,13.6 µM (inactive),4.67 µM (inactive),16.4 µM (inactive),2.69 µM (inactive),19.4 µM (inactive),19.3 µM (inactive),14.4 µM (inactive),16.6 µM (inactive),15.2 µM (inactive),24 µM (inactive),6.01 µM (inactive),17.2 µM (inactive),28.4 µM (inactive),
CCOC1=C2N=C(Cc3ccc(F)cc3)NC2C(=O)c2ccccc21 (stereo not given),4.69 µM (inactive),18.6 µM (inactive),,4.68 µM (inactive),17.5 µM (inactive),20.8 µM (inactive),22.1 µM (inactive),8.26 µM (inactive),27.5 µM (inactive),15.7 µM (inactive),27 µM (inactive),18.3 µM (inactive),21.1 µM (inactive),,,66.7 µM (inactive),8.67 µM (inactive),25.5 µM (inactive),38.2 µM (inactive),
CCOC(=O)CNC(=O)C(CCC(=O)N(C)O)NC(=O)CCC(N)C(=O)O (stereo not given),> 100 µM (inactive),> 100 µM (inactive),> 100 µM (inactive),> 100 µM (inactive),> 100 µM (inactive),> 100 µM (inactive),> 100 µM (inactive),> 100 µM (inactive),> 100 µM (inactive),> 100 µM (inactive),,> 100 µM (inactive),> 100 µM (inactive),> 100 µM (inactive),> 100 µM (inactive),> 100 µM (inactive),> 100 µM (inactive),> 100 µM (inactive),> 100 µM (inactive),> 100 µM (inactive)
NC1(C(=O)O)CCc2ccc(N(CCCl)CCCl)cc2C1 (stereo not given),> 100 µM (inactive),> 100 µM (inactive),> 100 µM (inactive),9.82 µM (inactive),4.74 µM (inactive),,22.5 µM (inactive),5.32 µM (inactive),> 100 µM (inactive),98.2 µM (inactive),> 100 µM (inactive),> 100 µM (inactive),> 100 µM (inactive),24.3 µM (inactive),29.6 µM (inactive),> 100 µM (inactive),26.7 µM (inactive),,> 100 µM (inactive),> 100 µM (inactive)
COC(=O)c1cccc(C(=O)OC)c1,,,> 100 µM (inactive),> 100 µM (inactive),> 100 µM (inactive),,,> 100 µM (inactive),> 100 µM (inactive),> 100 µM (inactive),> 100 µM (inactive),> 100 µM (inactive),> 100 µM (inactive),> 100 µM (inactive),> 100 µM (inactive),,> 100 µM (inactive),> 100 µM (inactive),> 100 µM (inactive),
